Consider 14 molecules from US6376491B1, “Bicyclic compounds” (Basilea Pharmaceutica AG, priority 1998, dated 2002).

A word on the IC50: it is the point on the concentration scale where inhibition reaches its midpoint. By LD50 is commonly meant the dose expected to kill half of the subjects tested. Read a low LD50 as a more toxic substance.

For data set [1], the system named is Cryptococcus neoformans (Cr. neoformans) cells (strain MTU13001). The data set is described as follows: In vitro antifungal activity, broth micro-dilution, turbidity at 600 nm. It counts as cell-based. To be noted: YNBPB medium, 35° C., 24 hours, OD600; for IC50: Cryptococcus neoformans, read-out: Inhibition against in vitro cell growth, Cr. neoformans (MTU13001) IC50. As to the method:
In vitro antifungal activity of the bicyclic compounds was determined using the Cryptococcus neoformans (Cr. neoformans) cells (strain MTU13001) according to the broth micro-dilution procedure (National Committee for Clinical Laboratory Standard (1992). Document M27-P). 10^4 cells in […] of YNBPB medium (YNB (Difco), 1% (w/v) dextrose (Wako), 0.25% K2HPO4 (Wako)) containing various concentrations of compounds were dispensed in 96-well plates and incubated at 35° C. for 24 hours. The turbidity of the cell suspension was measured using a Microplate leader (WL320, Bio-Tek Instrument) at 600 nm. Antifungal activity of each compound was indicated as 50% inhibition concentration (IC50) values that was determined by calculation the minimum concentration of the compound required for the 50% reduction of the turbidity (OD600) of cells compared to untreated control cells.

A short description of data set [2]: Acute toxicity (LD50) by intravenous administration in mice. Conditions: mouse, in vivo. The text has this:
The acute toxicity (LD50) of the representative bicycle compound (Example 42) of the present invention was examined by intravenous administration in mice.

≈ marks a conversion by molar mass, not a printed value. Where only a bound is given, the exact number is not on record here.

With `Cc1c(C2=NC(C(=O)N3CCN(C)CC3)C(CC3CCCCC3)O2)oc2cccc(OCCCNCc3cccnc3)c12` (racemic) [Example 88, dl-[5-Cyclohexylmethyl-2-(3-methyl-4-{3-[(pyridin-3-ylmethyl)-amino]-propoxy}-benzofuran-2-yl)-trans-4,5-dihydro-oxazol-4-yl]-(4-methyl-piperazin-1-yl)-methanone], in data set [1], the “Inhibition against in vitro cell growth, Cr. neoformans (MTU13001) IC50” value is 5.3 µg/mL.
Take `Cc1c(COc2ccc(F)cc2F)oc2cccc(OCCCNCc3cccnc3)c12` [Example 12, {3-[2-(2,4-Difluorophenoxymethyl)-3-methyl-benzofuran-4-yloxy]-propyl}-pyridin-3-ylmethyl-amine]: the IC50 in data set [1] amounted to 4.4 µg/mL (≈ 10 µM).
Still for that read-out and setting: next, `Cc1c(COc2ccc(F)c(F)c2F)oc2cccc(OCCCNCc3cccnc3)c12` [Example 21, {3-[2-(2,3,4-Trifluorophenoxymethyl)-3-methyl-benzofuran-4-yloxy]-propyl}-pyridin-3-ylmethyl-amine]: 5.8 µg/mL (≈ 12.7 µM); `Cc1c(COc2cccnc2)oc2cccc(OCCCNCc3cccnc3)c12` [Example 31, {3-[3-Methyl-2-(pyridin-3-yloxymethyl)-benzofuran-4-yloxy]-propyl}-pyridin-3-ylmethyl-amine]: 19 µg/mL (≈ 47.1 µM); `Cc1c(COc2ccc(C#N)cc2)oc2cccc(OCCCNCc3cccnc3)c12` [Example 32, 4-(3-Methyl-4-{3-[(pyridin-3-ylmethyl)-amino]-propoxy}-benzofuran-2-ylmethoxy)-benzonitrile]: 69 µg/mL (≈ 161 µM).
Turning to `CCOCc1cc2cc(OCc3oc4cccc(OCCCNCc5cccnc5)c4c3C)ccc2o1` [Example 42, [3-[2-(2-Ethoxymethyl-benzofuran-5-yloxymethyl)-3-methyl-benzofuran-4-yloxy]-propyl]-pyridin-3-ylmethyl-amine], the 50% inhibitory concentration (IC50) in data set [1] was found to be 2.5 µg/mL (≈ 4.99 µM). The molecule further showed an LD50 in data set [2] greater than 50 mg/kg.
On to `Cc1c(COc2ccc3oc(C(C)(C)O)cc3c2)oc2cccc(OCCCNCc3cccnc3)c12` [Example 44-2, 2-[5-(3-methyl-4-{3-[(pyridin-3-ylmethyl)-amino]-propoxy}-benzofuran-2-ylmethoxy)-benzofuran-2-yl]-propan-2-ol], for which, in data set [1], the IC50 was determined as 6.1 µg/mL (≈ 12.2 µM).
The same measure, in the same setting: next, `CCOCc1oc2cccc(OCCCNCc3cccnc3)c2c1C` [Example 52, [3-(2-Ethoxymethyl-3-methyl-benzofuran-4-yloxy)-propyl]-pyridin-3-ylmethyl-amine]: 2.6 µg/mL (≈ 7.34 µM); `Cc1c(CSCCc2ccccc2)oc2cccc(OCCCNC(C)C)c12` [Example 55, Isopropyl-[3-(3-methyl-2-phenethylsulfanylmethyl-benzofuran-4-yloxy)-propyl]-amine]: 1.8 µg/mL (≈ 4.53 µM).
Same read-out and setting: next, `CCOC(=O)c1ccc(NC(=O)c2oc3cccc(OCCCNC(C)(C)C)c3c2C)cc1` [Example 64, 4-[[4-(3-tert-Butylamino-propoxy)-3-methyl-benzofuran-2-carbonyl]-amino]-benzoic Acid Ethyl Ester]: 2.1 µg/mL (≈ 4.64 µM); `Cc1c(C(=O)Nc2ccc(N3CCOCC3)cc2)oc2cccc(OCCCNCc3cccnc3)c12` [Example 69, 3-Methyl-4-{3-[(pyridin-3-ylmethyl)-amino]-propoxy}-benzofuran-2-carboxylic Acid (4-morpholin-4-yl-phenyl)-amide]: 57 µg/mL (≈ 114 µM).
Still for that read-out and setting: next, `CCOC(=O)c1oc2cccc(OCCCNCc3ccc(N(C)C)cc3)c2c1C` [Example 99, 4-(3-(4-Dimethylamino-benzylamino)-propoxy)-3-methyl-benzofuran-2-carboxylic Acid Ethyl Ester]: 1.9 µg/mL (≈ 4.63 µM).
As for `CCOC(=O)c1oc2cccc(OCCCNC3CCN(Cc4ccccc4)CC3)c2c1C` [Example 100, 4-(3-(1-Benzyl-piperidin-4-ylamino)-propoxy)-3-methyl-benzofuran-2-carboxylic Acid Ethyl Ester], the IC50 in data set [1] is 2.1 µg/mL (≈ 4.66 µM).
The same measure, in the same setting: next, `Cc1c(C(=O)NCCc2ccccc2)oc2cccc(OCCCNC3CCN(Cc4ccccc4)CC3)c12` [Example 112, 4-[3-(1-Benzyl-piperidin-4-ylamino)-propoxy]-3-methyl-benzofuran-2-carboxylic Acid Phenethyl-amide]: 3.1 µg/mL (≈ 5.9 µM).
